The values below come from patent US12319651B2, “Crystalline forms and methods of producing crystalline forms of a compound” (priority 2019, dated 2025).

Series [1] in a line: Measurement of the approximate solubility (visual dissolution in solvent aliquots). It counts as physicochemical. Particulars: thermodynamic from solid. Here is the method: Aliquots of various solvents were added to measured amounts of compound with agitation (typically sonication) at ambient or elevated temperatures until complete dissolution was achieved, as judged by visual observation.
The approximate solubility at ambient temperature must be known in order to carry out systematic crystallization experiments.

A short description of series [2]: Dynamic vapor sorption (moisture sorption/desorption). It counts as physicochemical. Particulars: for Hygroscopicity: automated vapor sorption/desorption analysis, 5% to 95% RH. As for the experimental part: Moisture sorption/desorption data were collected on a VTI SGA-100 Vapor Sorption Analyzer. Sorption and desorption data were collected over a range of 5% to 95% relative humidity (RH) at 10% RH intervals under an nitrogen purge. Samples were not dried prior to analysis. Equilibrium criteria used for analysis were less than 0.0100% weight change in 5 minutes, with a maximum equilibration time of 3 hours if the weight criterion was not met. Data were not corrected for the initial moisture content of the samples. NaCl and PVP were used as calibration standards.

Series [3] in a line: Interconversion slurries of crystal forms. The series is classed as physicochemical. Particulars: for Relationship of forms C and E: from DSC data and interconversion results, transition temperature less than ambient. From the text: Crystal forms of the compound of Formula (I) were weighed out in approximately equal amounts and combined as desired. Aliquots of saturated solutions of compound in various solvents were filtered (0.2-μm nylon filter) into vials containing solid mixtures such that undissolved solids were present. The mixture was then agitated by either loading it onto an orbit shaker or adding a cross-shaped stir bar and allowing the mixture to stir in a sealed vial at stated conditions. The solids were isolated by vacuum filtration and analyzed.
Interconversion slurries were conducted as individual pairings between the E+C mixture and Form E material and between forms C and E. The experiments were carried out in cyclohexane and acetone:water 20:80, at room temperature for 7 days. Additional slurries were set up in toluene at room temperature for 1 day and at approximately 5° C. for 2 days.
A second set of interconversion slurries was conducted in which all unique patterns were slurried together at 50° C. in cyclohexane and ethanol:water 50:50. […]

The format of series [4] is physicochemical. Here is the method: The starting crystal Form was heated to 120° C. and the resulting material was analyzed by XRPD.
The XRPD results of crystalline Form E (FIG. 2) show good crystallinity. […] (FIG. 6). […] The XRPD results of crystalline Forms E+C (FIG. 3) show good crystallinity. Differential scanning calorimetry results for crystalline Forms E+C were very similar to that of Form E (FIG. 7). […] Form conversion was complete by 125° C. in the solid state.

Structures are written as SMILES.

In general, solubility refers to the dissolved amount per volume that the medium holds. For the compound `N#Cc1ccc(N2CCC[C@@H]2C(O)C(F)(F)F)cc1C(F)(F)F` (stereo partly drawn) [Compound of Formula (I)], the solubility is less than 2 mg/mL in series [1] (aqueous with cosolvent or surfactant or cyclodextrin, ambient, 1,4-dioxane/water 20:80 v/v); less than 2 mg/mL in series [1] (aqueous with cosolvent or surfactant or cyclodextrin, ambient, 1-propanol/water 20:80 v/v); less than 2 mg/mL in series [1] (aqueous with cosolvent or surfactant or cyclodextrin, ambient, 2,2,2-trifluoroethanol/water 20:80 v/v); less than 2 mg/mL in series [1] (aqueous with cosolvent or surfactant or cyclodextrin, ambient, acetone/water 20:80 v/v); 9 mg/mL in series [1] (aqueous with cosolvent or surfactant or cyclodextrin, ambient, acetone/water 50:50 v/v); less than 2 mg/mL in series [1] (aqueous with cosolvent or surfactant or cyclodextrin, ambient, acetonitrile/water 20:80 v/v). Also, the solubility in series [1] (aqueous with cosolvent or surfactant or cyclodextrin, ambient, ethanol/water 20:80 v/v) was less than 2 mg/mL; in series [1] (aqueous with cosolvent or surfactant or cyclodextrin, ambient, hexafluoroisopropanol/water 20:80 v/v), less than 2 mg/mL; in series [1] (aqueous with cosolvent or surfactant or cyclodextrin, ambient, isopropanol/water 20:80 v/v) it was less than 2 mg/mL; in series [1] (aqueous with cosolvent or surfactant or cyclodextrin, ambient, methanol/water 20:80 v/v), less than 2 mg/mL; in series [1] (aqueous with cosolvent or surfactant or cyclodextrin, ambient, tetrahydrofuran/water 20:80 v/v), less than 2 mg/mL; in series [1] (organic solvent or mixture, ambient, 1,4-dioxane), more than 111 mg/mL. Also, the solubility in series [1] (organic solvent or mixture, ambient, 1-butanol) is 37 mg/mL; in series [1] (organic solvent or mixture, ambient, 1-propanol), 55 mg/mL; in series [1] (organic solvent or mixture, ambient, 2,2,2-trifluoroethanol) it was 51 mg/mL; in series [1] (organic solvent or mixture, ambient, 2-butanone), more than 107 mg/mL; in series [1] (organic solvent or mixture, ambient, acetone), more than 112 mg/mL; in series [1] (organic solvent or mixture, ambient, acetonitrile), more than 110 mg/mL. Moreover, the solubility is 37 mg/mL in series [1] (organic solvent or mixture, ambient, chloroform); less than 2 mg/mL in series [1] (organic solvent or mixture, ambient, cyclohexane); 37 mg/mL in series [1] (organic solvent or mixture, ambient, dichloromethane); 58 mg/mL in series [1] (organic solvent or mixture, ambient, diethyl ether); more than 104 mg/mL in series [1] (organic solvent or mixture, ambient, ethanol); more than 108 mg/mL in series [1] (organic solvent or mixture, ambient, ethyl acetate). Further, the solubility was more than 106 mg/mL in series [1] (organic solvent or mixture, ambient, hexafluoroisopropanol); less than 2 mg/mL in series [1] (organic solvent or mixture, ambient, hexanes); more than 102 mg/mL in series [1] (organic solvent or mixture, ambient, isopropanol); 55 mg/mL in series [1] (organic solvent or mixture, ambient, isopropyl ether); more than 116 mg/mL in series [1] (organic solvent or mixture, ambient, methanol); more than 100 mg/mL in series [1] (organic solvent or mixture, ambient, methyl isobutyl ketone). Further, the solubility in series [1] (organic solvent or mixture, ambient, tert-butyl methyl ether) is more than 111 mg/mL; in series [1] (organic solvent or mixture, ambient, tetrahydrofuran) it was more than 102 mg/mL; in series [1] (organic solvent or mixture, ambient, toluene), 15 mg/mL; in series [1] (ambient, water), less than 2 mg/mL.

Consider `N#Cc1ccc(N2CCC[C@@H]2C(O)C(F)(F)F)cc1C(F)(F)F` (stereo partly drawn) [Form C], for which, in series [2], the Hydrate formation result was “does not show any evidence of hydrate formation”, the Stability over humidity entry is listed as “stable over a wide range of humidity” and the Hygroscopicity entry is “non-hygroscopic”. The Water uptake result in series [2] (DVS, FIG. 9) was “negligible water uptake”. Further, the “Most stable form in slurry of all forms” value in series [3] (50° C., 7 days, cyclohexane and ethanol:water 50:50) is recorded as “most stable form”. Besides, in series [3] (cyclohexane, acetone:water 20:80, toluene at ambient temperature, ethanol:water 50:50 at approximately 50° C.), the “Thermodynamic stability among crystal forms” value is listed as “most thermodynamically stable form”. Moreover, the “Relationship of forms C and E” value in series [3] is given as “enantiotropic”. For the same compound, the “Form stability upon heating and cooling” value in series [4] (heating to 150° C. and cooling down to ambient temperature) was “remained stable”. In series [4] (starting crystal form heated to 120° C., XRPD), the “Relative thermodynamic stability from heating study” value was “thermodynamically more stable crystal form”.

Consider `N#Cc1ccc(N2CCC[C@@H]2C(O)C(F)(F)F)cc1C(F)(F)F` (stereo partly drawn) [Form B], for which, in series [2], the Hydrate formation result was “does not show any evidence of hydrate formation” and the Stability over humidity result is “stable over a wide range of humidity”. Further, the “Temperature of likely form transformation upon heating” value in series [4] is “approximately 150 °C”.

`N#Cc1ccc(N2CCC[C@@H]2C(O)C(F)(F)F)cc1C(F)(F)F` (stereo partly drawn) [Form E]: in series [2], the Stability over humidity entry was “stable over a wide range of humidity” and the Hygroscopicity result is given as “slightly hygroscopic”. The “Relationship of forms C and E” value in series [3] is listed as “enantiotropic”. The “Most stable form in slurry” value in series [3] (toluene at approximately 5° C.) was “most stable form”. Further, in series [4] (VT-XRPD, solid state), the “Temperature at which form conversion was complete” value was not above 125 °C. For the same compound, the “Temperature of conversion to Form C upon heating” value in series [4] (VT-XRPD, mixture of forms E+C observed at this temperature) is 115 °C.

Regarding `N#Cc1ccc(N2CCC[C@@H]2C(O)C(F)(F)F)cc1C(F)(F)F` (stereo partly drawn) [Form E + C], the Hygroscopicity result in series [2] (listed as E+C mixture) is “slightly hygroscopic”. Besides, in series [4] (heated to 120° C.), the “XRPD Result after heating” value is reported as “Form C”.
